Measured values: US4533662A, “2-Acylaminomethyl-1,4-benzodiazepine compounds and analgesic use” (Kali-Chemie Pharma GmbH, priority 1980, dated 1985)
Where a name gives a salt, the structure may show the parent alone.

Experiments:
rats = assay: Arthritis pain test with rats; format: in vivo, Male rats of the strain OFA; conditions: Rattus norvegicus, po, 3 hours after administration; protection (no or one squeak) in 50% of animals; read-out: Suppression of arthritis pain in rats ED50
Experimental: 2. Arthritis pain test with rats.
Male rats of the strain OFA weighing 160 g. to 180 g. are anesthesized by intraperitoneal administration of 20 mg./kg. of pentobarbital sodium. 0.1 ml. of suspension of Mycobacterium Smegmae (S I043) in paraffin oil (0.6 mg. of Mycobacterium in 0.1 ml. of paraffin oil) are injected intracutaneously into the left hind paw. Fourteen days thereafter, when a pronounced secondary arthritis has developed particularly in the right hind paw, the effects of the compound to be tested are investigated. 30 minutes before the administration of the compound to be tested, a control measurement is carried out by bending three times the ankle joint of the right hind paw and the number of squeaks produced by the animal are counted. […] Three hours after oral administration of the compound to be tested, the bending procedure is repeated. Animals which emit only one squeak or none at all, are considered to be protected against pain. Between 9 and 20 rats are tested per dose and the ED50 (95% confidence limit) is determined according to the method of Litchfield and Wilcoxon (1949). The dose which achieves protection in 50% of the treated animals is designated as the ED50.

mice [1] = assay: Determination of the minimum toxic dose in mice; format: in vivo, male mice; conditions: p.o., observed 3 hours, deaths and symptoms up to 24 hours; maximum dose 300 mg./kg.
Experimental: 1. Determination of the minimum toxic dose.
Maximum doses of 300 mg./kg. of the compound to be tested are administered per os to male mice of a weight of 20 g. to 25 g. The animals are carefully observed for any toxicity symptoms during 3 hours. In addition thereto all symptoms and deaths are registered for a period of time of 24 hours after administration of the drug. Any accompanying symptoms are also observed and registered. When death or toxic symptoms are observed, more and more decreasing doses are administered to other mice, until no more toxic symptoms are encountered. The lowest dose which causes toxic symptoms is given as the minimum toxic dose.

mice [2] = assay: Tail flick test with mice; format: in vivo, male and female mice; conditions: Mus musculus, sc, 0.5 h; s.c., 30 min after administration; reaction time 75% longer in 50% of animals
Experimental: 3. Tail flick test with mice.
The method is based on the procedure described by d'Amour and Smith in 1941. In contrast thereto there are used, in place of rats, fed male and female mice of a body weight of 16 g. to 25 g. 30 minutes before treatment with the compound to be tested each mouse is placed into a separate cylindrical container of such a size that the mouse cannot turn around and cannot move forward. Its tail extends outwardly of the container while resting in a narrow trough. A specific spot of the tail of each animal (at a distance of about 35 mm. from the tail root) is exposed to the heat of radiation of a lamp of known strength and temperature. The lamp is positioned directly underneath the tail. The time in seconds which the mouse needs in order to jerk the tail out of the range of the light ray, is determined twice, once 30 minutes and another time 15 minutes before the subcutaneous administration of the compound (10 mg./kg) to be tested. Mice, the reaction time of which deviates by more than 25%, are eliminated and disregarded. The reaction times are again measured 15 minutes and 30 minutes after administration. An increase in the reaction times by more than 75% of the average reaction time values measured before administration of the test compound to the same mouse is considered an analgesic effect. […] The ED50 is calculated according to the method of Litchfield and Wilcoxon (1949).

COc1ccc2c(c1)N(C)C(CNC(=O)c1ccccc1)CN=C2c1ccccc1F (centres unmarked) [Example 60]
ED50 (rats): 3.5 mg/kg
Minimum toxic dose in mice (mice [1]): 300 mg/kg
ED50 (mice [2]): 0.32 mg/kg

COc1ccc(C(=O)NCC2CN=C(c3ccc(F)cc3)c3ccccc3N2C)cc1 (centres unmarked) [Example 40]
ED50 (rats): 11 mg/kg
Minimum toxic dose in mice (mice [1]): > 300 mg/kg

CN1c2ccccc2C(c2ccccc2F)=NCC1CNC(=O)c1ccc(C#N)cc1 (centres unmarked) [Example 29]
ED50 (rats): 1.7 mg/kg
Minimum toxic dose in mice (mice [1]): 300 mg/kg
ED50 (mice [2]): 21 mg/kg

CCN1c2ccccc2C(c2ccccc2)=NCC1CNC(=O)c1ccc(C(F)(F)F)cc1 (centres unmarked) [Example 155]
ED50 (rats): ~2 mg/kg

Cc1ccc2c(c1)C(c1ccccc1F)=NCC(CNC(=O)c1ccccc1)N2C (centres unmarked) [Example 47]
ED50 (rats): ~13 mg/kg
Minimum toxic dose in mice (mice [1]): > 300 mg/kg
ED50 (mice [2]): 5.6 mg/kg

COc1cccc(C(=O)NCC2CN=C(c3ccccc3F)c3ccccc3N2C)c1 (centres unmarked) [Example 31]
ED50 (rats): 10 to 18 mg/kg
Minimum toxic dose in mice (mice [1]): > 300 mg/kg
ED50 (mice [2]): 1.8 mg/kg

CN1c2ccccc2C(c2ccccc2F)=NCC1CNC(=O)c1ccc(C(F)(F)F)cc1 (centres unmarked) [Example 33]
ED50 (rats): 5.6 to 10 mg/kg
Minimum toxic dose in mice (mice [1]): > 300 mg/kg
ED50 (mice [2]): 1.4 mg/kg

COc1ccc2c(c1)N(C)C(CNC(=O)c1ccccc1)CN=C2c1ccc(Cl)cc1Cl (centres unmarked) [Example 4, 8-Methoxy-1-methyl-2-benzoyl amino methyl-5-(2',4'-dichlorophenyl)-1H-2,3-dihydro-1,4-benzo diazepine]
ED50 (rats): 0.5 mg/kg
Minimum toxic dose in mice (mice [1]): 10 mg/kg
ED50 (mice [2]): 0.07 mg/kg

Cc1ccc(C(=O)NCC2CN=C(c3ccccc3)c3ccccc3N2C)cc1 (centres unmarked) [Example 25]
ED50 (rats): 3.2 mg/kg
ED50 (mice [2]): 2.5 mg/kg

COc1ccc(C(=O)NCC2CN=C(c3ccccc3F)c3ccccc3N2C)cc1 (centres unmarked) [Example 32]
ED50 (rats): 1.7 mg/kg
Minimum toxic dose in mice (mice [1]): 300 mg/kg
ED50 (mice [2]): 4.2 mg/kg

COc1ccc(CC(=O)NCC2CN=C(c3ccccc3)c3cc(Cl)ccc3N2C)cc1OC (centres unmarked) [Example 112]
ED50 (rats): 10 mg/kg
Minimum toxic dose in mice (mice [1]): 50 mg/kg
ED50 (mice [2]): 20 mg/kg

COc1ccc(CC(=O)NCC2CN=C(c3ccccc3)c3cc4c(cc3N2C)OCO4)cc1OC (centres unmarked) [Example 113]
ED50 (rats): 18 to 32 mg/kg
Minimum toxic dose in mice (mice [1]): 100 mg/kg
ED50 (mice [2]): < 5.6 mg/kg

CN1c2ccccc2C(c2ccccc2F)=NCC1CNC(=O)c1cccc(C#N)c1 (centres unmarked) [Example 35]
ED50 (rats): 9 mg/kg
ED50 (mice [2]): 13 mg/kg

CN1c2ccccc2C(c2ccccc2)=NCC1CNC(=O)c1ccc(Cl)cc1Cl (centres unmarked) [Example 18]
ED50 (rats): 7.5 mg/kg
Minimum toxic dose in mice (mice [1]): > 300 mg/kg

CN1c2cc3c(cc2C(c2ccccc2)=NCC1CNC(=O)c1ccccc1)OCO3 (centres unmarked) [Example 49]
ED50 (rats): 2.5 mg/kg
Minimum toxic dose in mice (mice [1]): 100 mg/kg
ED50 (mice [2]): 0.56 mg/kg

CN1c2ccccc2C(c2ccccc2F)=NCC1CNC(=O)Cc1ccccc1Cl (centres unmarked) [Example 117]
ED50 (rats): 6 mg/kg
Minimum toxic dose in mice (mice [1]): > 300 mg/kg
ED50 (mice [2]): 13 mg/kg

COc1ccc2c(c1)N(C)C(CNC(=O)c1ccccc1)CN=C2c1cccc(F)c1 (centres unmarked) [Example 58]
ED50 (rats): ~18 mg/kg
Minimum toxic dose in mice (mice [1]): 300 mg/kg
ED50 (mice [2]): 1.6 mg/kg

COc1ccc(C(=O)NCC2CN=C(c3ccccc3)c3ccccc3N2C)cc1 (centres unmarked) [Example 20]
ED50 (rats): ~4 mg/kg
Minimum toxic dose in mice (mice [1]): 300 mg/kg
ED50 (mice [2]): 4.6 mg/kg

CN1c2ccccc2C(c2ccccc2)=NCC1CNC(=O)c1ccccc1 (centres unmarked) [Example 1, 1-Methyl-2-benzoyl amino methyl-5-phenyl-1H-2,3-dihydro-1,4-benzo diazepine]
ED50 (rats): 19 mg/kg
Minimum toxic dose in mice (mice [1]): > 300 mg/kg
ED50 (mice [2]): 0.52 mg/kg

COc1ccc2c(c1)N(C)C(CNC(=O)c1ccccc1)CN=C2c1ccc(F)cc1 (centres unmarked) [Example 2, 8-Methoxy-1-methyl-2-benzoyl amino methyl-5-(4'-fluorophenyl)-1H-2,3-dihydro-1,4-benzo diazepine]
ED50 (rats): 2 mg/kg
Minimum toxic dose in mice (mice [1]): 50 mg/kg
ED50 (mice [2]): 0.64 mg/kg

CN1c2ccccc2C(c2ccccc2)=NCC1CNC(=O)c1ccc(Cl)c(Cl)c1 (centres unmarked) [Example 19, 1-Methyl-2-(3,4-dichlorobenzoylaminomethyl)-5-phenyl-1H--2,3-dihydro-1,4-benzo diazepine hydrochloride]
ED50 (rats): ~2.3 mg/kg
Minimum toxic dose in mice (mice [1]): > 300 mg/kg
ED50 (mice [2]): 1 mg/kg

CN1c2ccccc2C(c2ccccc2)=NCC1CNC(=O)c1ccc([N+](=O)[O-])cc1 (centres unmarked) [Example 28]
ED50 (rats): 0.6 mg/kg
Minimum toxic dose in mice (mice [1]): > 300 mg/kg

COc1ccc2c(c1)N(C)C(CNC(=O)c1ccccc1)CN=C2c1cccc(C(F)(F)F)c1 (centres unmarked) [Example 55]
ED50 (rats): 10 to 18 mg/kg
ED50 (mice [2]): 5.6 to 10 mg/kg

CCN1c2ccccc2C(c2ccccc2F)=NCC1CNC(=O)c1ccc(C(F)(F)F)cc1 (centres unmarked) [Example 154]
ED50 (rats): 2 mg/kg

CN1c2cc(F)ccc2C(c2ccccc2)=NCC1CNC(=O)c1ccccc1 (centres unmarked) [Example 59]
ED50 (rats): 9.7 mg/kg
Minimum toxic dose in mice (mice [1]): 300 mg/kg
ED50 (mice [2]): 1 mg/kg
